# Reference: US10189840B2, “Substituted tricyclic heterocyclic compounds” (BRISTOL-MYERS SQUIBB COMPANY, priority 2015, dated 2019)
# Molecular target: TNFα (Homo sapiens (Human), UniProt P01375)
# Assay: TNF induced HEK-Blue assay
# Type: cell-based
# Settings: TNFα 0.5 ng/ml; HEK-Blue-CD40L cells, NF-κB-driven secreted alkaline phosphatase reporter; 18 h
# Protocol: Test compounds serially diluted in DMSO were plated in an assay plate (Labcyte, Cat. #LP-0200) at final concentrations ranging from 0.004 μM to 25 μM. TNFα (final concentration 0.5 ng/ml) or CD40L (final concentration 30 ng/ml) in assay buffer [DMEM, 4.5 g/l glucose (Gibco, Cat. 21063-029), 10% FBS (Sigma, F4135), 1% Penicillin-Streptomycin (Gibco, Cat. 15140-122), 1% Anti-Anti (Gibco, Cat. 15240-112) and 2 mM L-glutamine (Gibco, Cat. 25030-081)] was then added to the assay plate. After a 30 minute pre-incubation at 37° C. and 5% CO2, HEK-Blue-CD40L cells (InvivoGen, Cat. Code hkb-cd40) containing a NF-κB-driven secreted alkaline phosphatase reporter gene were seeded into the assay plate at a density of 20,000 cells per well. This plate was then incubated for 18 h at 37° C. and 5% CO2. Secreted alkaline phosphatase expression was measured using QUANTI-Blue (InvivoGen, Cat. Code rep-qb1) according to manufacturer's specifications and the assay plate was read on a PerkinElmer Envision at 620 nm.
# Inhibition data for the test compound over a range of concentrations was plotted as percentage inhibition of the test compound (100%=maximum inhibition). IC50 values were determined after correcting for background [(sample read−mean of low control)/(mean of high control−mean of low control)] where by the low control is DMSO without stimulation and high control is DMSO with stimulation. The IC50 is defined as the concentration of test compound which produces 50% inhibition and was quantified using the 4 parameter logistic equation to fit the data.
# Table 5 lists the IC50 values measured in the TNF induced HEK-Blue assay for Examples 1 to 40 of this invention.
# Chain of TNFα (P01375 77-233): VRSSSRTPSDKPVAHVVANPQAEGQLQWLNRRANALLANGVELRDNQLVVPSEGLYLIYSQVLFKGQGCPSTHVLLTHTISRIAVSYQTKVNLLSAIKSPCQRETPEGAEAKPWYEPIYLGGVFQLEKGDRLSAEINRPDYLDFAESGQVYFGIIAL
row,IC50 [µM],SMILES
1,< 1,"CC(C)(O)c1ccc(-c2ccc3nc4n(c3n2)C(c2ccccc2OC(F)F)CC4O)cc1 (single isomer, unassigned) [Example 2 (e1), 8-(2-(difluoromethoxy)phenyl)-2-(4-(2-hydroxypropan-2-yl)phenyl)-7,8-dihydro-6H-pyrrolo[2′,1′:2,3]imidazo[4,5-b]pyridin-6-ol]"
2,1 to 10,"CC(C)(O)c1ccc(-c2ccc3nc4n(c3n2)C(c2ccccc2OC(F)F)CC4O)cc1 (single isomer, unassigned) [Example 2 (e4), 8-(2-(difluoromethoxy)phenyl)-2-(4-(2-hydroxypropan-2-yl)phenyl)-7,8-dihydro-6H-pyrrolo[2′,1′:2,3]imidazo[4,5-b]pyridin-6-ol]"
3,< 1,"CC(C)(O)c1ccc(-c2ccc3nc4n(c3n2)C(c2c(F)cccc2C(F)(F)F)CC4O)cc1 (single isomer, unassigned) [Example 3 (e3), 8-(2-fluoro-6-(trifluoromethyl)phenyl)-2-(4-(2-hydroxypropan-2-yl)phenyl)-7,8-dihydro-6H-pyrrolo[2′,1′:2,3]imidazo[4,5-b]pyridin-6-ol]"

# More lines, now with the values behind:
row,SMILES,IC50 [µM]
1,"CC(C)(O)c1ccc(-c2ccc3nc4n(c3n2)C(c2ccccc2C(F)(F)F)CC4O)cc1 (single isomer, unassigned) [Example 1 (e3), 2-(4-(2-Hydroxypropan-2-yl)phenyl)-8-(2-(trifluoromethyl)phenyl)-7,8-dihydro-6H-pyrrolo[2′,1′:2,3]imidazo[4,5-b]pyridin-6-ol]",1 to 10
2,"CC(C)(O)c1ccc(-c2ccc3nc4n(c3n2)C(c2ccccc2C(F)(F)F)CC4O)cc1 (single isomer, unassigned) [Example 1 (e4), 2-(4-(2-Hydroxypropan-2-yl)phenyl)-8-(2-(trifluoromethyl)phenyl)-7,8-dihydro-6H-pyrrolo[2′,1′:2,3]imidazo[4,5-b]pyridin-6-ol]",1 to 10
3,"CC(C)(O)c1ccc(-c2ccc3nc4n(c3n2)C(c2ccccc2OC(F)F)CC4O)cc1 (single isomer, unassigned) [Example 2 (e2), 8-(2-(difluoromethoxy)phenyl)-2-(4-(2-hydroxypropan-2-yl)phenyl)-7,8-dihydro-6H-pyrrolo[2′,1′:2,3]imidazo[4,5-b]pyridin-6-ol]",1 to 10
4,"CC(C)(O)c1ccc(-c2ccc3nc4n(c3n2)C(c2ccccc2OC(F)F)CC4O)cc1 (single isomer, unassigned) [Example 2 (e3), 8-(2-(difluoromethoxy)phenyl)-2-(4-(2-hydroxypropan-2-yl)phenyl)-7,8-dihydro-6H-pyrrolo[2′,1′:2,3]imidazo[4,5-b]pyridin-6-ol]",1 to 10
5,"CC(C)(O)c1ccc(-c2ccc3nc4n(c3n2)C(c2c(F)cccc2C(F)(F)F)CC4O)cc1 (single isomer, unassigned) [Example 3 (e1), 8-(2-fluoro-6-(trifluoromethyl)phenyl)-2-(4-(2-hydroxypropan-2-yl)phenyl)-7,8-dihydro-6H-pyrrolo[2′,1′:2,3]imidazo[4,5-b]pyridin-6-ol]",< 1
6,"CC(C)(O)c1ccc(-c2ccc3nc4n(c3n2)C(c2c(F)cccc2C(F)(F)F)CC4O)cc1 (single isomer, unassigned) [Example 3 (e2), 8-(2-fluoro-6-(trifluoromethyl)phenyl)-2-(4-(2-hydroxypropan-2-yl)phenyl)-7,8-dihydro-6H-pyrrolo[2′,1′:2,3]imidazo[4,5-b]pyridin-6-ol]",< 1
7,"CC(C)(O)c1ccc(-c2ccc3nc4n(c3n2)C(c2ccccc2C2CC2)CC4O)cc1 (single isomer, unassigned) [Example 9 (e3), 8-(2-cyclopropylphenyl)-2-(4-(2-hydroxypropan-2-yl)phenyl)-7,8-dihydro-6H-pyrrolo[2′,1′:2,3]imidazo[4,5-b]pyridin-6-ol]",1 to 10
8,"CC(C)(O)c1ccc(-c2ccc3nc4n(c3n2)C(c2ccccc2C2CC2)CC4O)cc1 (single isomer, unassigned) [Example 9 (e4), 8-(2-cyclopropylphenyl)-2-(4-(2-hydroxypropan-2-yl)phenyl)-7,8-dihydro-6H-pyrrolo[2′,1′:2,3]imidazo[4,5-b]pyridin-6-ol]",1 to 10
